The subject of experiment [1] is Arabidopsis thaliana. Briefly: HTPS (high throughput on soil) - Dicot - Post-emergence. The class given is in vivo. Conditions: N/A: not active; for Emax: read-out: HTPS - Dicot - Post Max effect; for HTPS - Dicot - Post ED50: from normalized green area. The method, boiled down:
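Single plants per well in sand, greenhouse-grown; at 2-true-leaf stage 5 μL compound in 50% acetone/0.1% tween-20 applied to leaves, top dose 1.5 Kg/Ha, 2.5-fold dilutions, 8 repeats. Green area imaged (11 and 18 DAA) for % inhibition; ED50/ED75/ED90 fitted from dose-response, t-test versus controls.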

For experiment [2], the system named is SETVI. Put plainly: In-planta LTP pre-emergence, visual phenotype. The class given is in vivo, Setaria viridis. Conditions: Setaria viridis, 432 h, monocot. As to the method: (§1) A basic panel of 8 weed species (Table 3) were sowed in 4×4×7 cm plastic pots containing inert sand (Sweet sand), intensively washed using osmosis water. Each specie was sowed in a separate pot. In each pot 10-15 seeds were sowed according to the specie viability. Sowing was performed one day before application. The plants were grown for 21 days in a controlled greenhouse (26±2° C. day 20±2° C. night). Hood irrigation (tap water+Shefer 5:3:8 8 mM) was given at a 50% water content by weight. Compounds were soluble in water (DDW), and commercial herbicide control was soluble in formulation B (Table 4). Application was conducted with an industrial sprayer (TeeJet 6502E nozzle) at a rate of 2 kg/ha and spray volume of […]. Pre-emergence advanced dose response experiment application was conducted at six rates between 1-0.0312 kg/ha and spray volume of […]. Percentage of emergence was evaluated at 15 DAA. Visual phenotyping was recorded using a scale of 0-6 (0: no visible effect, 6: maximum effect) at 18 DAA. All experiments included an untreated control, a solvent control and a positive control (commercial herbicide A.I.). Statistical analysis for visual phenotyping determined by a median value of ≥3.5 and Fisher test (pval≤0.05). Statistical analysis for plant emergence determined by % emergence ≥50 and T test (pval≤0.05), as well as Wilcox test (pval≤0.05).

In experiment [3] the test system is LOLPE. Put plainly: In-planta LTP pre-emergence, visual phenotype. The class given is in vivo, Lolium perenne. Conditions: monocot. As to the method:
as §1

The subject of experiment [4] is POAAN. Briefly: In-planta LTP pre-emergence, visual phenotype. The class given is in vivo, Poa annua. Conditions: monocot; for pest or weed control at 2000 g/ha: Poa annua, 432 h, read-out: IG Inhibited growth (% effect). Here is the method: as §1
For experiment [5], the system named is AMAPA. Briefly: In-planta LTP pre-emergence, visual phenotype. The class given is in vivo, Amaranthus palmeri. Conditions: dicot; for pest or weed control at 2000 g/ha: Amaranthus palmeri, 432 h, read-out: IG Inhibited growth (% effect). Here is the method: as §1
Experiment [6] deals with AMAPA. Briefly: In-planta LTP post-emergence, visual phenotype. Conditions: dicot. The class given is in vivo, Amaranthus palmeri. As to the method: A basic panel of eight weed species (Table 3) sowed in 4×4×7 cm plastic pots containing a garden mix (klasmann). Each specie was sowed in a separate pot. In each pot, 10-15 seeds were sowed according to the specie viability. Timing of application determined at a 1-2 true leaf stage. The plants grew for 30 days in a controlled greenhouse (26±2° C. day, 20±2° C. night). Hood irrigation (tap water+Shefer 5:3:8 8 mM) was given at a 50% water content by weight. Two days before application, the tested plants thinned down to three plants per pot. Compounds were soluble in water (DDW), and commercial herbicide control was soluble in formulation B (Table 4). Before application, 1% (v/v) crop oil and 0.02% (v/v) surfactant (Tergitol™ 15-5-7) were added to the solution. Application was conducted with an industrial sprayer (TeeJet 6502E nozzle) at a rate of 2 kg/ha and spray volume of […]. Plants were evaluated at 3 time points (4, 8, 12 days after application (DAA)). At each time point, visual phenotyping was recorded using a scale of 0-6 (0: no visible effect, 6: maximum effect). At 12 DAA, plants foliage was harvested, dried and weighed for dry weight analysis.
Post-emergence advanced dose response experiment included 4 species: SETVI, ECHCO, AMAPA, ABUTH (Tables 3, 5). Application was conducted at six rates between 0.6-0.0187 kg/ha and spray volume of […]. Plants were evaluated at 4 time points (6, 12, 18 and 26 DAA). At each time point, visual phenotyping was recorded using a scale of 0-6 (0: no visible effect, 6: maximum effect). At 26 DAA, plants foliage was harvested, dried and weighed for dry weight analysis.
Post-emergence advanced wide panel experiment included 24 weed species (Table 5). Application was conducted at 2 rates of 2 kg/ha and 0.25 kg/ha and spray volume of […]. Visual phenotyping was recorded at 4, 11, 17 and 20 DAA using a scale of 0-6 (0: no visible effect, 6: maximum effect). At 21 DAA, plants foliage was harvested, dried, and weighed for dry weight analysis. All experiments included an untreated control, a solvent control, and a positive control (commercial herbicide A.I.). Statistical analysis for visual phenotyping determined by a median value of ≥3.5 and Fisher test (pval≤0.05). Statistical analysis for dry weight determined by % inhibition ≥50 and T test (pval≤0.05), as well as Wilcox test (pval≤0.05).

Where [7] appears, read: read-out: DE Disturbed emergence (% effect).
[8] abbreviates: read-out: IG Inhibited growth (% effect).

The values that follow come from patent US20240336567A1, “PESTICIDAL AND HERBICIDAL COMPOUNDS AND METHODS OF USE THEREOF” (AG Plenus Ltd, priority 2021, published 2024).

Like-named read-outs stand apart in the source and are kept apart here.

As for `CC(N)COc1cccc(C(=O)O)c1` (stereo not shown) [Compound 106], the Emax in experiment [1] is 100%. For the same compound, in experiment [1], the “HTPS - Dicot - Post ED50” value came to 102 g/ha. In addition, the pest or weed control at 2000 g/ha in experiment [2] (setting [7]) amounted to 100%; in experiment [2] (setting [8]), 100%; in experiment [4], 100%; in experiment [5], 60%. Moreover, the “DE Disturbed emergence (% effect)” value in experiment [3] is reported as “DE (60) %”; in experiment [4] it was “DE (100) %”. The “DAB Disturbed apical bud (% effect)” value in experiment [5] is given as “DAB (60), %”. Further, in experiment [6], the “BL Bleaching (% effect)” value is “BL^2 (60) %”.

For `C#CCOC(=O)c1cccc(OCC(C)N)c1` (stereo not shown) [Compound 111], in experiment [1], the Emax came to 100%. For the same compound, the “HTPS - Dicot - Post ED50” value in experiment [1] was determined as 51 g/ha. For the same compound, the pest or weed control at 2000 g/ha in experiment [2] (setting [7]) turned out to be 100%; in experiment [2] (setting [8]), 100%; in experiment [4], 100%; in experiment [5], 60%. Also, the “DE Disturbed emergence (% effect)” value in experiment [4] was “DE (100), %”. In experiment [6], the “BL Bleaching (% effect)” value was “BL (40) %”.

As for `C[C@@H](N)COc1cccc(C(=O)O)c1` [Compound 154], the Emax in experiment [1] turned out to be 100%. The “HTPS - Dicot - Post ED50” value in experiment [1] is 16 g/ha. Moreover, the pest or weed control at 2000 g/ha stood at 100% in experiment [2] (setting [7]) and 60% in experiment [5]. In addition, in experiment [3], the “IG Inhibited growth (% effect)” value is on record as “IG (60) %”. The “DE Disturbed emergence (% effect)” value in experiment [4] is given as “DE (100) %”. Further, the “BL Bleaching (% effect)” value in experiment [6] is listed as “BL (60) %”.

On to `CCCCOC(=O)c1cccc(OCC(C)N)c1` (stereo not shown) [Compound 112], for which, in experiment [1], the Emax came out at 100%. For the same compound, the “HTPS - Dicot - Post ED50” value in experiment [1] stood at 300 g/ha. In addition, the pest or weed control at 2000 g/ha in experiment [2] (setting [7]) was 80%; in experiment [2] (setting [8]), 100%; in experiment [4], 100%; in experiment [5], 60%. In addition, the “IG Inhibited growth (% effect)” value in experiment [3] was “IG (40) %”; in experiment [6] it was “IG (60), %”. Moreover, the “DE Disturbed emergence (% effect)” value in experiment [4] is listed as “DE (100), %”.
